Assays:
Experiment in all cases: biochemical
Type in all cases: binding
Nluc-A3AR WT = molecular target: T1, Nluc-A3AR WT (Homo sapiens, UniProt P0DMS8)
T1 construct: expressed in transfected cells; host or cells: HEK293a
Experimental: (§1) All experiments were performed in duplicate.
(§2) Data were expressed as the mean ± standard error. All binding and Trupath data were analysed using the nonlinear regression curve-fitting programme with Prism 10 (GraphPad, San Diego, CA, USA). For nanoBRET saturation binding experiments, specific binding was calculated by subtracting non-specific binding (defined as binding in the presence of 10 µM MRS1220) from total binding. Specific binding data in each experiment were then normalised to the maximal binding (Bmax) of WT and fit to a one-site specific binding equation: Y =Bmax*[X]/(Kd + [X]). For nanoBRET competition binding experiments, data were normalised to total and non-specific binding responses and fit to a one-site—Fit Ki equation. […] Significant differences vs WT were determined by one-way ANOVA with a Dunnett’s multiple comparison test.

Nluc-A3AR Y15A^1.35 = molecular target: T2, Nluc-A3AR Y15A^1.35 (Homo sapiens, UniProt P0DMS8, Y15A)
T2 construct: expressed in transfected cells; host or cells: HEK293a
Experimental: as §1
(§3) Data were expressed as the mean ± standard error. All binding and Trupath data were analysed using the nonlinear regression curve-fitting programme with Prism 10 (GraphPad, San Diego, CA, USA). For nanoBRET saturation binding experiments, specific binding was calculated by subtracting non-specific binding (defined as binding in the presence of 10 µM MRS1220) from total binding. Specific binding data in each experiment were then normalised to the maximal binding (Bmax) of WT and fit to a one-site specific binding equation: Y =Bmax*[X]/(Kd + [X]). For nanoBRET competition binding experiments, data were normalised to total and non-specific binding responses and fit to a one-site—Fit Ki equation. Trupath's experimental data was baseline-corrected to the initial four baseline reads and then adjusted to the buffer control response. The area under the curve (AUC) for each response was calculated and plotted with a non-linear regression curve (log[agonist] vs response, three-parameter model), using the equation: Y = Bottom + (Top–Bottom)/(1 + 10^((LogEC50-X))). Here, X represents the log dose of the agonist, Y is the BRET2 AUC response, Top and Bottom are the curve plateaus, and EC50 is the agonist concentration yielding a response halfway between the Bottom and Top values. […] The efficacy of the agonists (τA) was separately calculated using the Black–Leff operational model of agonism[79] using KA values from Table 2 and then corrected for receptor expression relative to WT using Bmax values from Table 1[80]. Significant differences vs WT were determined by one-way ANOVA with a Dunnett’s multiple comparison test.

Nluc-A3AR S73A^2.65 = molecular target: T3, Nluc-A3AR S73A^2.65 (Homo sapiens, UniProt P0DMS8, S73A)
T3 construct: expressed in transfected cells; host or cells: HEK293a
Experimental: as §1, §2

Nluc-A3AR T94A^3.36 = molecular target: T4, Nluc-A3AR T94A^3.36 (Homo sapiens, UniProt P0DMS8, T94A)
T4 construct: expressed in transfected cells; host or cells: HEK293a
Experimental: as §1, §3

Nluc-A3AR H95A^3.37 = molecular target: T5, Nluc-A3AR H95A^3.37 (Homo sapiens, UniProt P0DMS8, H95A)
T5 construct: expressed in transfected cells; host or cells: HEK293a
Experimental: as §1
(§4) Data were expressed as the mean ± standard error. All binding and Trupath data were analysed using the nonlinear regression curve-fitting programme with Prism 10 (GraphPad, San Diego, CA, USA). For nanoBRET saturation binding experiments, specific binding was calculated by subtracting non-specific binding (defined as binding in the presence of 10 µM MRS1220) from total binding. Specific binding data in each experiment were then normalised to the maximal binding (Bmax) of WT and fit to a one-site specific binding equation: Y =Bmax*[X]/(Kd + [X]). For nanoBRET competition binding experiments, data were normalised to total and non-specific binding responses and fit to a one-site—Fit Ki equation. Trupath's experimental data was baseline-corrected to the initial four baseline reads and then adjusted to the buffer control response. The area under the curve (AUC) for each response was calculated and plotted with a non-linear regression curve (log[agonist] vs response, three-parameter model), using the equation: Y = Bottom + (Top–Bottom)/(1 + 10^((LogEC50-X))). Here, X represents the log dose of the agonist, Y is the BRET2 AUC response, Top and Bottom are the curve plateaus, and EC50 is the agonist concentration yielding a response halfway between the Bottom and Top values. […] Significant differences vs WT were determined by one-way ANOVA with a Dunnett’s multiple comparison test. Significance levels are indicated as follows: P ≤ 0.0001****, P = 0.0001–0.001***, P = 0.001–0.01**, and P = 0.01–0.05*.

Nluc-A3AR H95F^3.37 = molecular target: T6, Nluc-A3AR H95F^3.37 (Homo sapiens, UniProt P0DMS8, H95F)
T6 construct: expressed in transfected cells; host or cells: HEK293a
Experimental: as §1, §4

Nluc-A3AR V169E^45.53 = molecular target: T7, Nluc-A3AR V169E^45.53 (Homo sapiens, UniProt P0DMS8, V169E)
T7 construct: expressed in transfected cells; host or cells: HEK293a
Experimental: as §1, §4

Nluc-A3AR M174A^5.35 = molecular target: T8, Nluc-A3AR M174A^5.35 (Homo sapiens, UniProt P0DMS8, M174A)
T8 construct: expressed in transfected cells; host or cells: HEK293a
Experimental: as §1, §3

Nluc-A3AR Y265A^7.36 = molecular target: T9, Nluc-A3AR Y265A^7.36 (Homo sapiens, UniProt P0DMS8, Y265A)
T9 construct: expressed in transfected cells; host or cells: HEK293a
Experimental: as §1, §3

Nluc-A3AR S271A^7.42 = molecular target: T10, Nluc-A3AR S271A^7.42 (Homo sapiens, UniProt P0DMS8, S271A)
T10 construct: expressed in transfected cells; host or cells: HEK293a
T10 sequence (P0DMS8 whole entry S271A): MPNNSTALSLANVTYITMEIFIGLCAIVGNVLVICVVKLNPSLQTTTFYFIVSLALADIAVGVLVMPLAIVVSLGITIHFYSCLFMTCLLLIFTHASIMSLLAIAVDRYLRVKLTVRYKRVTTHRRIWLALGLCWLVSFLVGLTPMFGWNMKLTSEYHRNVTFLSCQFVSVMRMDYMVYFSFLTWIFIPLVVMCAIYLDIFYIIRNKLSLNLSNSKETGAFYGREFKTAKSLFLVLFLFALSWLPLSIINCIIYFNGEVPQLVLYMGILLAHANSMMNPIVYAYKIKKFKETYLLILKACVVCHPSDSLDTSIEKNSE
Experimental: as §1, §2

T7 sequence (P0DMS8 whole entry V169E): as the sequence (P0DMS8 whole entry S271A) above, with V169E, A271S counted along it
T3 sequence (P0DMS8 whole entry S73A): as the sequence (P0DMS8 whole entry S271A) above, with S73A, A271S counted along it
T6 sequence (P0DMS8 whole entry H95F): as the sequence (P0DMS8 whole entry S271A) above, with H95F, A271S counted along it
T9 sequence (P0DMS8 whole entry Y265A): as the sequence (P0DMS8 whole entry S271A) above, with Y265A, A271S counted along it
T1 sequence (P0DMS8 whole entry): as the sequence (P0DMS8 whole entry S271A) above, with A271S counted along it
T5 sequence (P0DMS8 whole entry H95A): as the sequence (P0DMS8 whole entry S271A) above, with H95A, A271S counted along it
T2 sequence (P0DMS8 whole entry Y15A): as the sequence (P0DMS8 whole entry S271A) above, with Y15A, A271S counted along it
T8 sequence (P0DMS8 whole entry M174A): as the sequence (P0DMS8 whole entry S271A) above, with M174A, A271S counted along it
T4 sequence (P0DMS8 whole entry T94A): as the sequence (P0DMS8 whole entry S271A) above, with T94A, A271S counted along it

CCCn1c(=O)c2c(nc3cc(OC)ccn32)n(CCCCNC(=O)c2ccc(S(=O)(=O)F)cc2)c1=O [LUF7602]
pKi (Nluc-A3AR WT; WT): 7.5 ± 0.05 (4)
ΔpKi relative to WT (Nluc-A3AR WT; WT): 0
pKi Mean (Figure S2H) (Nluc-A3AR WT; WT, n 3): 7.306
XAC-630 NanoBRET binding, normalised (Figure S2H), individual replicates (Nluc-A3AR WT; log LUF7602 -5, A3AR-WT): 0
normalised XAC-630 binding at 10 µM (Nluc-A3AR WT; read-out: XAC-630 NanoBRET binding, normalised (Figure S2H), individual replicates, log LUF7602 -5, A3AR-WT): 0%
normalised XAC-630 binding at 0.1 µM (Nluc-A3AR WT; read-out: XAC-630 NanoBRET binding, normalised (Figure S2H), individual replicates, log LUF7602 -7, A3AR-WT): 59.3%
normalised XAC-630 binding at 0.01 µM (Nluc-A3AR WT; read-out: XAC-630 NanoBRET binding, normalised (Figure S2H), individual replicates, log LUF7602 -8, A3AR-WT): 78%
normalised XAC-630 binding at 0.0001 µM (Nluc-A3AR WT; read-out: XAC-630 NanoBRET binding, normalised (Figure S2H), individual replicates, log LUF7602 -10, A3AR-WT): 89.4%
normalised XAC-630 binding at 0.06026 µM (Nluc-A3AR WT; read-out: normalised XAC-630 binding, WT, log[LUF7602] -7.22 M): 69.6%
normalised XAC-630 binding at 0.006026 µM (Nluc-A3AR WT; read-out: normalised XAC-630 binding, WT, log[LUF7602] -8.22 M): 96.8%
normalised XAC-630 binding at 0.0006026 µM (Nluc-A3AR WT; read-out: normalised XAC-630 binding, WT, log[LUF7602] -9.22 M): 90.4%
normalised XAC-630 binding at 60.26 pM (Nluc-A3AR WT; read-out: normalised XAC-630 binding, WT, log[LUF7602] -10.22 M): 100%
pKi (Nluc-A3AR Y15A^1.35; Y15A): 6.6 ± 0.2 (4)
reduction of binding affinity vs WT (Nluc-A3AR Y15A^1.35; Y15A): 10 fold
ΔpKi relative to WT (Nluc-A3AR Y15A^1.35; Y15A): -0.882
remaining activity at 60.26 pM (Nluc-A3AR Y15A^1.35; read-out: normalised XAC-630 binding, Y15A, log[LUF7602] -10.22 M): 100%
pKi (Nluc-A3AR S73A^2.65; S73A): 7.2 ± 0.06 (3)
ΔpKi relative to WT (Nluc-A3AR S73A^2.65; S73A): -0.31
remaining activity at 0.06026 µM (Nluc-A3AR S73A^2.65; read-out: normalised XAC-630 binding, S73A, log[LUF7602] -7.22 M): 71.4%
remaining activity at 0.006026 µM (Nluc-A3AR S73A^2.65; read-out: normalised XAC-630 binding, S73A, log[LUF7602] -8.22 M): 90.3%
remaining activity at 0.0006026 µM (Nluc-A3AR S73A^2.65; read-out: normalised XAC-630 binding, S73A, log[LUF7602] -9.22 M): 91.8%
remaining activity at 60.26 pM (Nluc-A3AR S73A^2.65; read-out: normalised XAC-630 binding, S73A, log[LUF7602] -10.22 M): 100%
remaining activity at 0.6026 µM (Nluc-A3AR S73A^2.65; read-out: normalised XAC-630 binding, S73A, log[LUF7602] -[…]): 19.1%
pKi (Nluc-A3AR T94A^3.36; T94A): 7.3 ± 0.05 (3)
ΔpKi relative to WT (Nluc-A3AR T94A^3.36; T94A): -0.208
remaining activity at 0.06026 µM (Nluc-A3AR T94A^3.36; read-out: normalised XAC-630 binding, T94A, log[LUF7602] -7.22 M): 77.1%
remaining activity at 0.006026 µM (Nluc-A3AR T94A^3.36; read-out: normalised XAC-630 binding, T94A, log[LUF7602] -8.22 M): 100%
remaining activity at 0.0006026 µM (Nluc-A3AR T94A^3.36; read-out: normalised XAC-630 binding, T94A, log[LUF7602] -9.22 M): 87.2%
remaining activity at 60.26 pM (Nluc-A3AR T94A^3.36; read-out: normalised XAC-630 binding, T94A, log[LUF7602] -10.22 M): 100%
pKi (Nluc-A3AR H95A^3.37; H95A): 6.2 ± 0.2 (3)
reduction of binding affinity vs WT (Nluc-A3AR H95A^3.37; H95A): ~ 10 fold
ΔpKi relative to WT (Nluc-A3AR H95A^3.37; H95A): -1.328
remaining activity at 0.1 µM (Nluc-A3AR H95A^3.37; read-out: normalised XAC-630 binding, H95A, log[LUF7602] -7 M): 98.1%
remaining activity at 0.01 µM (Nluc-A3AR H95A^3.37; read-out: normalised XAC-630 binding, H95A, log[LUF7602] -8 M): 113%
remaining activity at 0.001 µM (Nluc-A3AR H95A^3.37; read-out: normalised XAC-630 binding, H95A, log[LUF7602] -9 M): 104%
remaining activity at 0.0001 µM (Nluc-A3AR H95A^3.37; read-out: normalised XAC-630 binding, H95A, log[LUF7602] -10 M): 100%
pKi (Nluc-A3AR H95F^3.37; H95F): 6.4 ± 0.09 (3)
reduction of binding affinity vs WT (Nluc-A3AR H95F^3.37; H95F): ~ 10 fold
ΔpKi relative to WT (Nluc-A3AR H95F^3.37; H95F): -1.06
remaining activity at 0.006026 µM (Nluc-A3AR H95F^3.37; read-out: normalised XAC-630 binding, H95F, log[LUF7602] -8.22 M): 88.8%
remaining activity at 60.26 pM (Nluc-A3AR H95F^3.37; read-out: normalised XAC-630 binding, H95F, log[LUF7602] -10.22 M): 100%
remaining activity at 0.6026 µM (Nluc-A3AR H95F^3.37; read-out: normalised XAC-630 binding, H95F, log[LUF7602] -[…]): 47%
pKi (Nluc-A3AR V169E^45.53; V169E): 7.2 ± 0.05 (3)
ΔpKi relative to WT (Nluc-A3AR V169E^45.53; V169E): -0.293
remaining activity at 0.06026 µM (Nluc-A3AR V169E^45.53; read-out: normalised XAC-630 binding, V169E, log[LUF7602] -7.22 M): 87.5%
remaining activity at 0.006026 µM (Nluc-A3AR V169E^45.53; read-out: normalised XAC-630 binding, V169E, log[LUF7602] -8.22 M): 97.5%
remaining activity at 0.0006026 µM (Nluc-A3AR V169E^45.53; read-out: normalised XAC-630 binding, V169E, log[LUF7602] -9.22 M): 105%
remaining activity at 60.26 pM (Nluc-A3AR V169E^45.53; read-out: normalised XAC-630 binding, V169E, log[LUF7602] -10.22 M): 100%
remaining activity at 0.6026 µM (Nluc-A3AR V169E^45.53; read-out: normalised XAC-630 binding, V169E, log[LUF7602] -[…]): 17%
pKi (Nluc-A3AR M174A^5.35; M174A): 6.5 ± 0.09 (3)
reduction of binding affinity vs WT (Nluc-A3AR M174A^5.35; M174A): 10 fold
ΔpKi relative to WT (Nluc-A3AR M174A^5.35; M174A): -0.957
remaining activity at 0.06026 µM (Nluc-A3AR M174A^5.35; read-out: normalised XAC-630 binding, M174A, log[LUF7602] -7.22 M): 96.7%
remaining activity at 0.0006026 µM (Nluc-A3AR M174A^5.35; read-out: normalised XAC-630 binding, M174A, log[LUF7602] -9.22 M): 112%
remaining activity at 60.26 pM (Nluc-A3AR M174A^5.35; read-out: normalised XAC-630 binding, M174A, log[LUF7602] -10.22 M): 100%
remaining activity at 0.6026 µM (Nluc-A3AR M174A^5.35; read-out: normalised XAC-630 binding, M174A, log[LUF7602] -[…]): 44.9%
pKi (Nluc-A3AR Y265A^7.36; Y265A): 6.3 ± 0.07 (3)
reduction of binding affinity vs WT (Nluc-A3AR Y265A^7.36; Y265A): 15 fold
ΔpKi relative to WT (Nluc-A3AR Y265A^7.36; Y265A): -1.2
remaining activity at […] (Nluc-A3AR Y265A^7.36; read-out: normalised XAC-630 binding, Y265A, log[LUF7602] -9.5 M): 100%
ΔpKi relative to WT (Nluc-A3AR S271A^7.42; S271A): 0.423
pKi (Nluc-A3AR S271A^7.42; S271A, 40 nM XAC-630): 7.9 ± 0.09 (3)
remaining activity at 60.26 pM (Nluc-A3AR S271A^7.42; read-out: normalised XAC-630 binding, S271A, log[LUF7602] -10.22 M): 100%
remaining activity at 0.6026 µM (Nluc-A3AR S271A^7.42; read-out: normalised XAC-630 binding, S271A, log[LUF7602] -[…]): 5.71%

Source: publication PMC12361428 (Nature Communications, 2025)
